In patent US10099045B2, “Administration of antibiotics and therapeutic agents” (priority 2008, dated 2018):
“And” between values parts separate entries of the source, which are not always exact repeats. Identical values can stand only once. Like-named read-outs stand apart in the source and are kept apart here.

How the values were obtained:
STA 29213 MSSA = assay: MIC of Cefazolin, broth dilution method; type: cell-based, S. aureus; settings: for MIC/Cefazolin: single determinations
From the text: (§1) Accordingly, further tests of Cephazolin with a range of different MRSA strains at concentrations well above the dose achievable by IV delivery were made to understand these finding. The Minimum inhibitory concentration (MIC) of Cephazolin with respect to these various strains is reported below in Table 1 in units are in .mu·g/ml of Cefazolin using the broth dilution method. MIC is the lowest concentration of an antimicrobial that will inhibit the visible growth of a microorganism after overnight incubation. STA 29213 is the conventional strain of S. aureus, showing normal sensitivity to Cefazolin with an MIC of 0.5.mu·g/ml.
(§2) The colony count in the last column is just a quality control measure to insure the correct innooculum.

MRSA 116 = assay: MIC of Cefazolin, broth dilution method; type: cell-based, Staphylococcus aureus
From the text: as §1, §2

MRSA 142 ATCC 33591 MRSA = assay: MIC of Cefazolin, broth dilution method; type: cell-based, Staphylococcus aureus
From the text: as §1, §2

MRSA 143 = assay: MIC of Cefazolin, broth dilution method; type: cell-based, Staphylococcus aureus
From the text: as §1, §2

MRSA 144 = assay: MIC of Cefazolin, broth dilution method; type: cell-based, Staphylococcus aureus
From the text: as §1, §2

MRSA 145 = assay: MIC of Cefazolin, broth dilution method; type: cell-based, Staphylococcus aureus
From the text: as §1, §2

MRSA 146 = assay: MIC of Cefazolin, broth dilution method; type: cell-based, Staphylococcus aureus
From the text: as §1, §2

MRSA 147 = assay: MIC of Cefazolin, broth dilution method; type: cell-based, Staphylococcus aureus
From the text: as §1, §2

MRSA 148 = assay: MIC of Cefazolin, broth dilution method; type: cell-based, Staphylococcus aureus
From the text: as §1, §2

MRSA 149 = assay: MIC of Cefazolin, broth dilution method; type: cell-based, Staphylococcus aureus
From the text: as §1, §2

MRSA 150 = assay: MIC of Cefazolin, broth dilution method; type: cell-based, Staphylococcus aureus
From the text: as §1, §2

MRSA 151 = assay: MIC of Cefazolin, broth dilution method; type: cell-based, Staphylococcus aureus
From the text: as §1, §2

MRSA 152 = assay: MIC of Cefazolin, broth dilution method; type: cell-based, Staphylococcus aureus
From the text: as §1, §2

MRSA 56 (494) = assay: MIC of Cefazolin, broth dilution method; type: cell-based, Staphylococcus aureus
From the text: as §1, §2

Mu 3 MRSA hVISA = assay: MIC of Cefazolin, broth dilution method; type: cell-based, Staphylococcus aureus; settings: for MIC/Cefazolin: single determinations
From the text: as §1, §2

Mu 50 MRSA VISA = assay: MIC of Cefazolin, broth dilution method; type: cell-based, Staphylococcus aureus
From the text: as §1, §2

STA 25923 MSSA = assay: MIC of Cefazolin, broth dilution method; type: cell-based, Staphylococcus aureus
From the text: as §1, §2

[1] = Adipose tissue and serum concentration after subcutaneous infusion with transcutaneous ultrasound, elective abdominoplasty; settings: for blood serum concentration: 1 gm subcutaneous plus ultrasound, when surgery was completed about an hour later
Protocol: A prophylactic dose of the antibiotic Cafazolin was delivered to a patient by the above procedure prior to elective abdominoplasty using the Silberg Tissue Preparation Systems TM Model ME 800 (9801427) Mettler Surgical, Anaheim, Calif.). About 250 cc of prewarmed saline containing 1 gm of Cefazolin was injected under a surgical incision line 201 that was about 5 cm long. Small sample of adipose tissue where taken during the surgical procedure to determine if the Cefazolin would remain above desired concentration reported by Ohge et al., and thus remain sufficiently high through the procedure. Further, blood serum samples were taken during the procedure to determine the potential for a longer term systemic delivery.

[2] = tested on: methicillin-sensitive Staphylococcus aureus (MSSA), Klebsiella pneumoniae, Escherichia coli, Streptococcus spp.; settings: 360 MSSA, 204 K. pneumoniae, 314 E. coli, 30 Streptococcus spp. isolates; cited from earlier work
[3] = intravenous bolus 1 g, cited from earlier work
[4] = Staphylococcus aureus, read-out: Median MIC

SMILES: Cc1nnc(SCC2=C(C(=O)O)N3C(=O)[C@@H](NC(=O)Cn4cnnn4)[C@H]3SC2)s1 [Cefazolin]
- MIC (STA 29213 MSSA; [4]): 0.5 µg/mL
- MIC/Cefazolin (STA 29213 MSSA; MSSA strain): 1 µg/mL
- MIC/Cefazolin (STA 29213 MSSA; conventional S. aureus strain STA 29213): 0.5 µg/mL
- MIC/Cefazolin (MRSA 116; MRSA 116, single determinations): 512 µg/mL and 256 µg/mL
- MIC (MRSA 116; Staphylococcus aureus, MRSA 116, read-out: Median MIC): 256 µg/mL
- MIC/Cefazolin (MRSA 142 ATCC 33591 MRSA; MRSA 142 ATCC 33591, single determinations): 256 µg/mL
- MIC (MRSA 142 ATCC 33591 MRSA; Staphylococcus aureus, MRSA 142 ATCC 33591, read-out: Median MIC): 256 µg/mL
- MIC/Cefazolin (MRSA 143; MRSA 143, single determinations): 64 µg/mL and 128 µg/mL
- MIC (MRSA 143; Staphylococcus aureus, MRSA 143, read-out: Median MIC): 128 µg/mL
- MIC/Cefazolin (MRSA 144; MRSA 144, single determinations): 64 µg/mL and 128 µg/mL
- MIC (MRSA 144; Staphylococcus aureus, MRSA 144, read-out: Median MIC): 64 µg/mL
- MIC/Cefazolin (MRSA 145; MRSA 145, single determinations): 128 µg/mL
- MIC (MRSA 145; Staphylococcus aureus, MRSA 145, read-out: Median MIC): 128 µg/mL
- MIC/Cefazolin (MRSA 146; MRSA 146, single determinations): 64 µg/mL and 128 µg/mL
- MIC (MRSA 146; Staphylococcus aureus, MRSA 146, read-out: Median MIC): 64 µg/mL
- MIC/Cefazolin (MRSA 147; MRSA 147, single determinations): 64 µg/mL
- MIC (MRSA 147; Staphylococcus aureus, MRSA 147, read-out: Median MIC): 64 µg/mL
- MIC/Cefazolin (MRSA 148; MRSA 148, single determinations): 256 µg/mL and 128 µg/mL
- MIC (MRSA 148; Staphylococcus aureus, MRSA 148, read-out: Median MIC): 256 µg/mL
- MIC/Cefazolin (MRSA 149; MRSA 149, single determinations): 128 µg/mL
- MIC (MRSA 149; Staphylococcus aureus, MRSA 149, read-out: Median MIC): 128 µg/mL
- MIC/Cefazolin (MRSA 150; MRSA 150, single determinations): 512 µg/mL
- MIC (MRSA 150; Staphylococcus aureus, MRSA 150, read-out: Median MIC): 512 µg/mL
- MIC/Cefazolin (MRSA 151; MRSA 151, single determinations): 128 µg/mL
- MIC (MRSA 151; Staphylococcus aureus, MRSA 151, read-out: Median MIC): 128 µg/mL
- MIC/Cefazolin (MRSA 152; MRSA 152, single determinations): 4 µg/mL and 8 µg/mL
- MIC (MRSA 152; Staphylococcus aureus, MRSA 152, read-out: Median MIC): 4 µg/mL
- MIC (MRSA 56 (494); [4]): 128 µg/mL
- MIC/Cefazolin (MRSA 56 (494); single determinations): 64 µg/mL and 128 µg/mL
- MIC relative to the dose required for normal strains (Mu 3 MRSA hVISA; MU 3, most resistant strain): about 50 times
- MIC/Cefazolin (Mu 3 MRSA hVISA; Mu 3 MRSA hVISA): 512 µg/mL
- MIC/Cefazolin (Mu 3 MRSA hVISA; Mu 3 MRSA hVISA, listed as antibiotic): about 512 μg/ml
- MIC (Mu 3 MRSA hVISA; Staphylococcus aureus, Mu 3 MRSA hVISA, read-out: Median MIC): 512 µg/mL
- MIC (Mu 50 MRSA VISA; [4]): 256 µg/mL
- MIC/Cefazolin (Mu 50 MRSA VISA; single determinations): 256 µg/mL
- MIC (STA 25923 MSSA; [4]): 0.5 µg/mL
- MIC/Cefazolin (STA 25923 MSSA; single determinations): 0.5 µg/mL
- blood serum concentration [1]: about 10 μg/ml
- blood serum concentration ([1]; listed as antibiotic): less than 10 μg/ml
- tissue concentration relative to intravenous administration of Ohge et al. ([1]; human, in vivo): about 50 times
- Kp ([1]; human, in vivo, 1 gm): < 10
- tissue level to achieve minimum inhibitory concentrations for 80% (MIC80) of four bacterial species [2]: about 4 μg/ml
- serum concentration ([3]; after about 4 hours): about 10 μg/ml
- mean tissue concentration ([3]; after slightly more than 2 hours of surgery): below 4 μg/ml
- mean tissue concentration ([3]; an hour after surgery commenced): about 10 μg/ml
- mean tissue concentration ([3]; an hour after surgery commenced, listed as antibiotic): 10 µg/mL
- serum concentration ([3]; end of the same time period (slightly more than 2 hours)): ~40000 ng/mL
- serum concentration ([3]; start of the same time period (an hour after surgery commenced)): about 80 μg/ml
